Results on 1 molecule are retold here after patent US11066371B2, “Pyridine compound, making, and use thereof” (UNITED ARAB EMIRATES UNIVERSITY, priority 2015, dated 2021).

As a reminder, the melting point is the temperature, or range, at which the solid turns liquid. As to `Cc1c(C#N)c([O-])nc(-c2ccccc2)c1/N=N/c1ccc([N+](=O)[O-])cc1.[K+]`, the melting point is greater than 300 °C.
